From US20230219963A1, “PYRROLO[2,3-D]PYRIMIDINE DERIVATIVES” (Pfizer Inc., priority 2020, published 2023)
pIC50: −log10 of the molar value.

What was measured:
IL-15 induced pSTAT5 = assay: IL-15-induced pSTAT5 in human whole blood (lymphocytes); type: cell-based; settings: Lymphocyte, JAK1/JAK3, read-out: IL-15 induced pSTAT5, cellular potency IC50
Procedure: (§1) Human whole blood was collected from healthy donors via vein puncture into Vacutainer collection tubes containing sodium heparin in accordance with Pfizer protocols (Protocol No. GOHW RDP-01) approved by the Shulman Institutional Review Board. Blood was warmed to 37° C. priorto use. Human whole blood was aliquoted (90 μL/well) in 96-well, deep-well, V-bottom plates and treated with compounds (5 μL/well) at different concentrations up to 60 μM (0.2% DMSO final) at 37° C. for 60 minutes. This was followed by a challenge with IFNα (5000 U/mL), IFNγ (100 ng/mL), IL-6 (50 ng/mL), IL-10 (30 ng/mL), IL-12 (30 ng/mL), IL-15 (30 ng/mL), IL-21 (50 ng/mL), IL-23 (25 ng/mL), IL-27 (1000 ng/mL), EPO (2 U/mL), TSLP (50 ng/mL) or PBS and incubated for 15 minutes. Anti-cell surface antibodies were added 15 minutes prior to cytokine stimulation; anti-CD3-BV421 (0.5 μL/well) to IL-6-treated and TSLP-treated samples and anti-CD14-BV421 (0.5 μL/well) to IFNγ-treated samples. Samples were treated with warm 1×Lyse/Fix buffer (700 μL/well) to terminate activation and further incubated at 37° C. for 20 minutes to lyse red blood cells. Plates were centrifuged at 300×g for 5 minutes, supernatant was aspirated, and cells were washed with 800 μL/well of staining buffer (D-PBS containing 0.1% FBS and 0.01% sodium azide). Washed cell pellets were resuspended in 350 μL/well of prechilled 90% methanol and incubated at 4° C. for 30 minutes. After the removal of 90% methanol, cells were washed once with staining buffer. All samples were finally suspended in 150 μL/well of the desired anti-phospho-STAT antibodies at 1:150 dilution in staining buffer; anti-pSTAT1-AF647 in IFNγ treated samples; anti-pSTAT1-AF488 and anti-pSTAT3-AF647 in IL-6-treated samples, anti-pSTAT3-AF647 in IFNα, IL-10, IL-21, IL-23 and IL-27 treated samples, anti-pSTAT4-AF647 in IL-12 treated samples, anti-pSTAT5-AF-647 in EPO, IL-15 and TSLP-treated samples. Human primary keratinocytes were cultured in DermaLife™ medium with supplement kit to expand cell population. Cell passages 2 to 5 were used in the assays. Cells were harvested at ˜80% confluence, suspended in warm DermaLife™ medium, aliquoted (90 μL/well) in 96-well, deep-well, V-bottom plates, and incubated at 37° C. for 30 minutes. Cells were then treated with compounds (0.0003 to 20 μM) for 60 minutes and followed by stimulation with IL-4 (2 ng/mL) or IL-13 (20 ng/mL) at 37° C. for 15 minutes. […]
(§2) After overnight incubation at 4° C., anti-pSTAT stained samples were transferred into 96-well polypropylene U-bottom plates and flow cytometric analysis was performed on a LSR Fortessa™ equipped with a HTS plate loader. […] Background fluorescence was defined using unstimulated cells and a gate was placed at the foot of the peak to include ˜0.5% gated population. […]

IL-10 induced pSTAT3 = assay: IL-10-induced pSTAT3 in human whole blood (lymphocytes); type: cell-based; settings: Lymphocyte, JAK1/TYK2, read-out: IL-10 induced pSTAT3, cellular potency IC50
Procedure: as §1, §2

EPO induced pSTAT5 = assay: EPO-induced pSTAT5 in human whole blood (all events); type: cell-based; settings: JAK2/JAK2, read-out: EPO induced pSTAT5, cellular potency IC50
Procedure: as §1, §2

JAK1 = JAK1 (Homo sapiens, UniProt P23458); assay: JAK Caliper Enzyme Assay at 1 mM ATP (JAK1); type: biochemical
Procedure: JAK Caliper Enzyme Assay at 1 mM ATP
Test article was solubilized in dimethyl sulfoxide (DMSO) to a stock concentration of 30 mM. An 11-point half log dilution series was created in DMSO with a top concentration of 600 μM. […] The compound plates were diluted 1 to 60 resulting in a top final assay compound concentration of 10 μM and a 2% DMSO concentration. Test article and assay controls were added to a 384-well plate. Reaction mixtures contained 20 mM HEPES, pH 7.4, 10 mM magnesium chloride, 0.01% bovine serum albumin (BSA), 0.0005% Tween 20, 1 mM ATP and 1 μM peptide substrate. […] The assays were initiated by the addition of 20 nM JAK1, 1 nM JAK2, 1 nM JAK3 or 1 nM TYK2 enzyme and were incubated at room temperature for three hours for JAK1, 60 minutes for JAK2, 75 minutes for JAK3 or 135 minutes for TYK2. Enzyme concentrations and incubation times were optimized for each new enzyme preps and were modified slightly over time to ensure 20%-30% phosphorylation. The assays were stopped with a final concentration of 10 mM EDTA, 0.1% Coating Reagent and 100 mM HEPES, pH=7.4. The assay plates were placed on a Caliper Life Science Lab Chip 3000 (LC3000) instrument, and each well was sampled using appropriate separation conditions to measure the unphosphorylated and phosphorylated peptide.

IL-27 induced pSTAT3 = assay: IL-27-induced pSTAT3 in human whole blood (lymphocytes); type: cell-based; settings: Lymphocyte, JAK1/JAK2, read-out: IL-27 induced pSTAT3, cellular potency IC50
Procedure: as §1, §2

IL-6 induced pSTATI = assay: IL-6-induced pSTAT1 in human whole blood (CD3+ cells); type: cell-based; settings: JAK1/JAK2, read-out: IL-6 induced pSTATI, cellular potency IC50
Procedure: as §1, §2

IFNa induced pSTAT3 = assay: IFNα-induced pSTAT3 in human whole blood (lymphocytes); type: cell-based; settings: Lymphocyte, JAK1/TYK2, read-out: IFNa induced pSTAT3, cellular potency IC50
Procedure: Human whole blood was collected from healthy donors via vein puncture into Vacutainer collection tubes containing sodium heparin in accordance with Pfizer protocols (Protocol No. GOHW RDP-01) approved by the Shulman Institutional Review Board. Blood was warmed to 37° C. priorto use. Human whole blood was aliquoted (90 μL/well) in 96-well, deep-well, V-bottom plates and treated with compounds (5 μL/well) at different concentrations up to 60 μM (0.2% DMSO final) at 37° C. for 60 minutes. This was followed by a challenge with IFNα (5000 U/mL), IFNγ (100 ng/mL), IL-6 (50 ng/mL), IL-10 (30 ng/mL), IL-12 (30 ng/mL), IL-15 (30 ng/mL), IL-21 (50 ng/mL), IL-23 (25 ng/mL), IL-27 (1000 ng/mL), EPO (2 U/mL), TSLP (50 ng/mL) or PBS and incubated for 15 minutes. Anti-cell surface antibodies were added 15 minutes prior to cytokine stimulation; anti-CD3-BV421 (0.5 μL/well) to IL-6-treated and TSLP-treated samples and anti-CD14-BV421 (0.5 μL/well) to IFNγ-treated samples. Samples were treated with warm 1×Lyse/Fix buffer (700 μL/well) to terminate activation and further incubated at 37° C. for 20 minutes to lyse red blood cells. Plates were centrifuged at 300×g for 5 minutes, supernatant was aspirated, and cells were washed with 800 μL/well of staining buffer (D-PBS containing 0.1% FBS and 0.01% sodium azide). Washed cell pellets were resuspended in 350 μL/well of prechilled 90% methanol and incubated at 4° C. for 30 minutes. After the removal of 90% methanol, cells were washed once with staining buffer. […]
as §2

Chain of JAK1 (P23458 whole entry): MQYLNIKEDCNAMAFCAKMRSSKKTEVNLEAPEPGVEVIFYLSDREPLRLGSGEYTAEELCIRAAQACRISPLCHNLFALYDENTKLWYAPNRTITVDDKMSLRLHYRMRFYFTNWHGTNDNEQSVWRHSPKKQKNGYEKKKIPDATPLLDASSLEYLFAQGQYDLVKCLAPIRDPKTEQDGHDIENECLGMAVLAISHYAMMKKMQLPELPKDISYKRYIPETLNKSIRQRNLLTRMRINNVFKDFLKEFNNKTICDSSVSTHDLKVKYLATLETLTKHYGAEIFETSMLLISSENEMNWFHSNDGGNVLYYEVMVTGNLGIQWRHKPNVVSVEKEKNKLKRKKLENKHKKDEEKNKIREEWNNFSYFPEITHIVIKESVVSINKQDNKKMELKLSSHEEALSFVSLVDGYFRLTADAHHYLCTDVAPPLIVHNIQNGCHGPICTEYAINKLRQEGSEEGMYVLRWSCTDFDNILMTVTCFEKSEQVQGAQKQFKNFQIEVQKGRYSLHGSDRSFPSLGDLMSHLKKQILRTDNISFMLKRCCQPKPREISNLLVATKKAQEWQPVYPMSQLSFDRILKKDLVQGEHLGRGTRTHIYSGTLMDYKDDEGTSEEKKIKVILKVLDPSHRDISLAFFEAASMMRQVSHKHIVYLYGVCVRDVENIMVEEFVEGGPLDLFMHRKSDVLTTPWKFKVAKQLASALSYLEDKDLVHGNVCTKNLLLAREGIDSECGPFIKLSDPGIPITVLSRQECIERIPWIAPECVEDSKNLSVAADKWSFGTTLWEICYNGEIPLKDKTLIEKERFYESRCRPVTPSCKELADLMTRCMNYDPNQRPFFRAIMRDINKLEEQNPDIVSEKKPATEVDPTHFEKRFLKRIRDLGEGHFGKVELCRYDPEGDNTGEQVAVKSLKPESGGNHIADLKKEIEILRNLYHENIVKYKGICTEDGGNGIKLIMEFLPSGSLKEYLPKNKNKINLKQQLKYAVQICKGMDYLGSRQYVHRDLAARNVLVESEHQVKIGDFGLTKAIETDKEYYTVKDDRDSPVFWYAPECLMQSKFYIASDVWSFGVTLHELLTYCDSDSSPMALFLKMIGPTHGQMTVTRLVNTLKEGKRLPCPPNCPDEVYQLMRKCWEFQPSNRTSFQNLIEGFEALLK

Row | SMILES | pIC50 (IL-15 induced pSTAT5) | pIC50 (IL-10 induced pSTAT3) | pIC50 (EPO induced pSTAT5) | pIC50 (JAK1) | pIC50 (IL-27 induced pSTAT3) | pIC50 (IL-6 induced pSTATI) | pIC50 (IFNa induced pSTAT3)
1 | C[C@H](O)CS(=O)(=O)N[C@H]1C[C@@H](N(C)c2ncnc3[nH]ccc23)C1 (single isomer, unassigned) [IA (M2)] | 6.45 | 6.63 | 5.02 | 7.75 | 6.63 | 6.87 | 7.04
2 | C[C@@H](O)CS(=O)(=O)N[C@H]1C[C@@H](N(C)c2ncnc3[nH]ccc23)C1 (single isomer, unassigned) [IC (M3)] | 6.10 | 6.31 | 4.74 | 7.25 | 6.24 | 6.48 | 6.65
3 | CN(c1ncnc2[nH]ccc12)[C@H]1C[C@@H](NS(=O)(=O)CCCO)C1 [IB (M1), 3-Hydroxy-N-(cis-3-(methyl(7H-pyrrolo[2,3-d]pyrimidin-4-yl)amino)cyclobutyl)propane-1-sulfonamide] | 6.25 | 6.17 | 5.01 | 7.36 | 6.42 | 6.77 | 6.53
